≈ marks a conversion by molar mass, not a printed value. Like-named read-outs stand apart in the source and are kept apart here.
What was measured:
[1] = system: human peripheral blood mononuclear cells (PBMC); test: XTT cytotoxicity testing; format: cell-based; conditions: 2-64 μg/ml, vs drug free control
Description: (§1) The plates were maintained in a 37° C. incubator.
The cytotoxicity of kuraridin and its analogues were determined by the sodium 3′-[1-(phenylaminocarbonyl)-3,4-tetrazolium]-bis (4-methoxy-6-nitro) benzene sulfonic acid hydrate (XTT) assay.
Serial dilutions of the compounds ranging 2-64 μg/ml were incubated with PBMCs at 37° C. for 72 hrs.

[2] = system: Human Mammary Epithelial Cell (HMEC); test: XTT cytotoxicity testing; format: cell-based; conditions: 2-64 μg/ml, vs drug free control
Description: as §1

[3] = system: cytokines production of human PBMC stimulated with PGN or SEB; format: cell-based
[4] = system: cytokines production of human macrophages stimulated with PGN or SEB; format: cell-based
[5] = system: Panton-Valentine leukocidin positive CA-MRSA strain ST30; format: in vivo, Balb/c mice; conditions: ST30; used alone at 60 and 120 mg/kg
clinical MRSA ST239 = test: Mouse pneumonia model, ST239 (neutropenic mice); format: in vivo, Balb/c mice; conditions: ST239; 48 h; 1 also died in control
[6] = system: adherence of MRSA strain JE-2 to fibrinogen; test: Fibrinogen-binding adherence assay (crystal violet); format: cell-based, Staphylococcus aureus; conditions: varying concentrations
[7] = system: internalization of MRSA strain JE-2 by HaCat keratinocytes; test: Internalization of S. aureus by HaCaT keratinocytes; format: cell-based, Staphylococcus aureus
[8] = system: bacterial aggregation of MRSA JE-2; test: Aggregation assay of MRSA JE-2; format: cell-based, Staphylococcus aureus; conditions: JE-2; varying concentrations
[9] = system: S. aureus ATCC25923 (methicillin sensitive); conditions: ATCC 25293; ECG with Kur
HA MRSA W231 = conditions: ECG+Kur+Van
Solubility = conditions: saline or isotonic
[10] = system: Human Umbilical Vein Endothelial Cells (HUVEC); test: XTT cytotoxicity testing; conditions: 2-64 μg/ml, vs drug free control
[11] = system: S. aureus SA-APH2″-AAC6′ (APH2), resistant to gentamicin; test: MIC and checkerboard (FIC) assay
[12] = system: S. aureus SA-APH3′ (APH3), resistant to kanamycin; test: MIC and checkerboard (FIC) assay
[13] = system: S. aureus SA-RN4220-pUL5054 (RN4220); test: MIC and checkerboard (FIC) assay
MRSA SA-ST239 = test: MIC and checkerboard (FIC) assay
[14] = system: S. aureus ATCC25923 (methicillin sensitive); test: MIC and checkerboard (FIC) assay
CA MRSA W48 = test: MIC and checkerboard (FIC) assay; conditions: for FIC / MIC combine / MIC alone: W48
HA MRSA W233 = test: MIC and checkerboard (FIC) assay
HA MRSA W234 = test: MIC and checkerboard (FIC) assay; conditions: for FIC / MIC combine: ECG with Kur
HA MRSA W240 = test: MIC and checkerboard (FIC) assay; conditions: for FIC / MIC combine: ECG with Kur
[15] = system: panel of laboratory MRSA strains; test: MIC and combination tests, panel of laboratory strains
[16] = APH2″-AAC6′, ECG with WQD-169 (Kuraridin)
[17] = Staphylococcus aureus, read-out: MIC 99.9
[18] = Staphylococcus aureus, read-out: MIC alone
[19] = ST239, ECG with WQD-169 (Kuraridin)
[20] = Staphylococcus aureus, MRSA, read-out: MIC alone

O=C(O[C@@H]1Cc2c(O)cc(O)cc2O[C@@H]1c1ccc(O)c(O)c1)c1cc(O)c(O)c(O)c1 [ECG, epicatechin gallate]
Cellular toxicity (XTT assay) [1]: not toxic
Cellular toxicity (XTT assay) [2]: not toxic
IL-10 and IL-12 production [3]: mildly suppressed
TNF-α production [3]: no significant effects
IL-12 production [4]: could suppress only IL-12
log CFU counts and survival rates [5]: could not reduce the log CFU counts or improve the survival rates
mice died (clinical MRSA ST239): 1 mouse
fibrinogen-binding adherence [6]: dose-dependent reduction of adherence
percentage of internalized bacteria by HaCaT cells ([7]; ECG 4 μg/ml): 62.2±2.7%
percentage of internalized bacteria by HaCaT cells ([7]; ECG 8 μg/ml): 62.8±10.5%
percentage of internalized bacteria by HaCaT cells ([7]; ECG 16 μg/ml): 53.7±6.3%
percentage of internalized bacteria by HaCaT cells ([7]; ECG 32 μg/ml): 42.2±8.9%
percentage of internalized bacteria by HaCaT cells ([7]; ECG 64 μg/ml): 34.7±4.5%
bacterial aggregation [8]: No significant reduction
FIC [9]: 0.008
MIC combine [9]: 4 mg/L
FIC (HA MRSA W231): 0.0004
MIC combine (HA MRSA W231): 0.25 mg/L
solubility (Solubility): 20 mg/mL (≈ 45.2 mM)
Cellular toxicity (XTT assay) [10]: not toxic
MIC alone ([11]; APH2 (gentamicin resistant)): 512 mg/L
FIC ([11]; APH2, ECG+Kur+Gen): 0.0005
MIC combine ([11]; APH2, ECG+Kur+Gen): 0.25 mg/L
FIC ([11]; APH2, ECG+Kur, no Gen): 0.0009
MIC combine ([11]; APH2, ECG+Kur, no Gen): 0.5 mg/L
FIC ([11]; APH2, Kuraridin with ECG): 0.0009
MIC combine ([11]; APH2, Kuraridin with ECG): 0.5 mg/L
FIC ([11]; APH2″-AAC6′, ECG with WQD-164): 0.001
MIC combine ([11]; APH2″-AAC6′, ECG with WQD-164): 1 mg/L
FIC ([11]; APH2″-AAC6′, ECG with WQD-165): 0.0009
MIC combine ([11]; APH2″-AAC6′, ECG with WQD-165): 0.5 mg/L
FIC [11, 16]: 0.007
MIC combine [11, 16]: 4 mg/L
FIC ([11]; APH2″-AAC6′, ECG with WQD-175): 0.0009
MIC combine ([11]; APH2″-AAC6′, ECG with WQD-175): 0.5 mg/L
MIC90 ([11]; Staphylococcus aureus): 8 mg/L
MIC99 [11, 17]: > 512 mg/L
MIC [11, 18]: 512 mg/L
MIC alone ([11]; Strain APH2″-AAC6′, Table 9): 512 mg/L
FIC ([12]; APH3, Kuraridin with ECG): 0.0009
MIC combine ([12]; APH3, Kuraridin with ECG): 0.5 mg/L
MIC90 ([12]; Staphylococcus aureus): 4 mg/L
MIC99 [12, 17]: > 512 mg/L
MIC [12, 18]: 512 mg/L
FIC ([13]; RN4220, Kuraridin with ECG): 0.01
MIC combine ([13]; RN4220, Kuraridin with ECG): 8 mg/L
MIC90 ([13]; Staphylococcus aureus): 8 mg/L
MIC99 [13, 17]: > 512 mg/L
MIC [13, 18]: 512 mg/L
FIC (MRSA SA-ST239; ST239, ECG with Kur): 0.004
MIC combine (MRSA SA-ST239; ST239, ECG with Kur): 2 mg/L
FIC (MRSA SA-ST239; ST239, ECG with WQD-164): 0.001
MIC combine (MRSA SA-ST239; ST239, ECG with WQD-164): 2 mg/L
FIC (MRSA SA-ST239; ST239, ECG with WQD-165): 0.0009
MIC combine (MRSA SA-ST239; ST239, ECG with WQD-165): 0.5 mg/L
FIC (MRSA SA-ST239; [19]): 0.007
MIC combine (MRSA SA-ST239; [19]): 4 mg/L
FIC (MRSA SA-ST239; ST239, ECG with WQD-175): 0.0009
MIC combine (MRSA SA-ST239; ST239, ECG with WQD-175): 0.5 mg/L
FIC (MRSA SA-ST239; ST239, ECG+Kur+Van): 0.0004
MIC combine (MRSA SA-ST239; ST239, ECG+Kur+Van): 0.25 mg/L
MIC alone (MRSA SA-ST239; ST239, Table 5): 512 mg/L
MIC90 (MRSA SA-ST239; Staphylococcus aureus, MRSA): 16 mg/L
MIC99 (MRSA SA-ST239; Staphylococcus aureus, MRSA, read-out: MIC 99.9): > 512 mg/L
MIC (MRSA SA-ST239; [20]): 512 mg/L
MIC alone (MRSA SA-ST239; Strain ST239, Table 9): 512 mg/L
MIC ([14]; Staphylococcus aureus, ATCC25293 / ATCC25923, read-out: MIC alone): 512 mg/L
MIC90 ([14]; Staphylococcus aureus, ATCC25923): 128 mg/L
MIC99 ([14]; Staphylococcus aureus, ATCC25923, read-out: MIC 99.9): > 512 mg/L
MIC (CA MRSA W48; [20]): 512 mg/L
FIC (CA MRSA W48; ECG with Kur): 0.002
MIC combine (CA MRSA W48; ECG with Kur): 1 mg/L
FIC (CA MRSA W48; ECG+Kur+Van): 0.002
MIC combine (CA MRSA W48; ECG+Kur+Van): 1 mg/L
MIC alone (CA MRSA W48; Table 5): 512 mg/L
MIC (HA MRSA W233; [20]): 512 mg/L
MIC alone (HA MRSA W233; W233 (gentamicin resistant)): 512 mg/L
FIC (HA MRSA W233; W233, ECG with Kur): 0.004
MIC combine (HA MRSA W233; W233, ECG with Kur): 2 mg/L
FIC (HA MRSA W233; W233, ECG+Kur+Gen): 0.0005
MIC combine (HA MRSA W233; W233, ECG+Kur+Gen): 0.25 mg/L
FIC (HA MRSA W233; W233, ECG+Kur+Van): 0.03
MIC combine (HA MRSA W233; W233, ECG+Kur+Van): 8 mg/L
FIC (HA MRSA W233; W233, ECG+Kur, no Gen): 0.03
MIC combine (HA MRSA W233; W233, ECG+Kur, no Gen): 16 mg/L
MIC alone (HA MRSA W233; W233, Table 5): 512 mg/L
MIC (HA MRSA W234; [20]): 512 mg/L
FIC (HA MRSA W234; W234): 0.002
MIC combine (HA MRSA W234; W234): 1 mg/L
MIC (HA MRSA W240; [20]): 512 mg/L
FIC (HA MRSA W240; W240): 0.008
MIC combine (HA MRSA W240; W240): 4 mg/L
MIC90 ([15]; Staphylococcus aureus, MRSA): 4 to 16 mg/L
concentration for 99.9% inhibition ([15]; panel of laboratory strains): > 512 µg/mL

C=C(C)[C@H](CC=C(C)C)Cc1c(O)cc(OC)c(C(=O)/C=C/c2ccc(O)cc2O)c1O [Kuraridin]
MIC alone ([11]; APH2 (gentamicin resistant)): 8 mg/L
FIC ([11]; APH2, ECG+Kur+Gen): 0.25
MIC combine ([11]; APH2, ECG+Kur+Gen): 2 mg/L
FIC ([11]; APH2, ECG+Kur, no Gen): 0.25
MIC combine ([11]; APH2, ECG+Kur, no Gen): 2 mg/L
MIC alone (MRSA SA-ST239; ST239): 8 mg/L
FIC (MRSA SA-ST239; ST239, ECG with Kur): 0.5
MIC combine (MRSA SA-ST239; ST239, ECG with Kur): 4 mg/L
FIC (MRSA SA-ST239; ST239, ECG+Kur+Van): 0.125
MIC combine (MRSA SA-ST239; ST239, ECG+Kur+Van): 1 mg/L
MIC alone (MRSA SA-ST239; ST239, Table 5): 8 mg/L
MIC alone ([14]; ATCC 25293): 8 mg/L
FIC ([14]; ATCC 25293, ECG with Kur): 0.5
MIC combine ([14]; ATCC 25293, ECG with Kur): 4 mg/L
MIC alone (CA MRSA W48): 8 mg/L
FIC (CA MRSA W48; ECG with Kur): 0.5
MIC combine (CA MRSA W48; ECG with Kur): 4 mg/L
FIC (CA MRSA W48; ECG+Kur+Van): 0.25
MIC combine (CA MRSA W48; ECG+Kur+Van): 2 mg/L
MIC alone (CA MRSA W48; Table 5): 8 mg/L
MIC alone (HA MRSA W233; W233): 4 mg/L
MIC alone (HA MRSA W233; W233 (gentamicin resistant)): 8 mg/L
FIC (HA MRSA W233; W233, ECG with Kur): 0.5
MIC combine (HA MRSA W233; W233, ECG with Kur): 2 mg/L
FIC (HA MRSA W233; W233, ECG+Kur+Gen): 0.5
MIC combine (HA MRSA W233; W233, ECG+Kur+Gen): 4 mg/L
FIC (HA MRSA W233; W233, ECG+Kur+Van): 0.25
MIC combine (HA MRSA W233; W233, ECG+Kur+Van): 2 mg/L
FIC (HA MRSA W233; W233, ECG+Kur, no Gen): 1
MIC combine (HA MRSA W233; W233, ECG+Kur, no Gen): 8 mg/L
MIC alone (HA MRSA W233; W233, Table 5): 8 mg/L
MIC alone (HA MRSA W234; W234): 8 mg/L
FIC (HA MRSA W234; W234): 0.5
MIC combine (HA MRSA W234; W234): 4 mg/L
MIC alone (HA MRSA W240; W240): 8 mg/L
FIC (HA MRSA W240; W240): 0.5
MIC combine (HA MRSA W240; W240): 4 mg/L
